For one series, the system named is SkBr3 cells. The series can be described thus: cell viability MTT assay, SkBr3. The class given is cell-based. Particulars: Homo sapiens, SK-BR-3, 48 h, SkBr3, 48 h, read-out: IC50, cell growth inhibition. The protocol: (§1) To determine whether HS-133 can function as a novel anticancer compound, we tested the ability of this compound to inhibit the growth of breast cancer cell lines (SkBr3, T47D, and MCF-7) using an MTT assay. The cells were exposed to various concentrations (0.5–50 μM) of HS-133 for 48 h. As shown in Fig. 3A-C, HS-133 inhibited the growth of all three breast cancer cell lines in a dose-dependent manner.
(§2) Cell viability was performed by an MTT assay. Briefly, the SkBr3, T47D, and MCF-7 cells were plated at a density of 1-5 × 10^3 cells/well in a 96-well plate for 48 h. The medium was removed, and the cells were treated with either DMSO as control or various concentrations of HS-133. The final concentration of DMSO in the medium was ≤ 0.1% (v/v). After the cells were incubated for 48 h, 20 μl of MTT solutions (2 mg/ml) was added to each well for another 4 h at 37°C. The formazan crystals that formed were dissolved in DMSO (200 μl/well) via constant shaking for 5 min. The plate was then read on a microplate reader at 540 nm. Three replicate wells were used for each analysis. The median inhibitory concentration (IC50, defined as the drug concentration at which cell growth was inhibited by 50%) was assessed from the dose-response curves.

In another series the test system is MCF-7 cells. The series can be described thus: cell viability MTT assay, MCF-7. The format is cell-based. The note with it: Homo sapiens, MCF7, MCF-7, 48 h, read-out: IC50, cell growth inhibition. As for the experimental part:
as §1, §2

Series [1] has as its system HUVECs. The series can be described thus: tube formation assay. The format is cell-based, human. Particulars: 20 h. As for the experimental part: (§3) To examine the effect of HS-133 on angiogenesis, a capillary tube formation assay using human umbilical vein endothelial cells (HUVECs) was performed. […] Cell migration is critical for the endothelial cells to form blood vessels during angiogenesis, and is necessary for tumor growth and metastasis. Thus, we conducted a wound migration assay to study the effect of HS-133 on cell migration. […] Considering that endothelial migration and tube formation have all highly relevant properties of angiogenesis, our results illustrated that HS-133 has the ability to block angiogenesis.
A 10 mg/ml (200 μl) of Matrigel (BD Biosciences) was polymerized for 30 min at 37°C. HUVECs were suspended in M199 (2% FBS) medium containing VEGF (50 ng/ml) at a density of 2.5 × 10^5 cells/ml, and 0.2 ml of cell suspension was added to each well coated with Matrigel, together with or without the indicated concentrations of HS-133 for 20 h. The morphological changes of the cells and tubes formed were observed under a phase-contrast microscope and photographed at 200× and 400× magnification.

In series [2] the test system is HUVECs. The series can be described thus: wound migration assay. The format is cell-based, human. The note with it: HUVECs, 1, 5, or 10 μM, 18 h. As for the experimental part: as §3
HUVECs plated on 60 mm-diameter culture dishes at 90% confluence, were wounded 2 mm in width with a sterile razor blade and marked at the injury line. […] HUVECs were allowed to migrate for 18 h and were rinsed with a serum-free medium, followed by fixing with absolute methanol and staining with Giemsa (Sigma-Aldrich). Migration was quantitated with counting the number of cells that moved beyond the reference line.

Series [3] is described as follows: pharmacokinetic study in mouse. The format is in vivo. Particulars: plasma, ICR mice; for AUC(0-t): read-out: AUC0–24hr; for half-life: read-out: T1/2, λ (converted).

Where two headings read alike, the source gives them in different places.

On to `CC(=O)Nc1ccc(-c2nc3c(c(=O)n(C)c(=O)n3C)n2-c2cccc(F)c2)cc1` [HS-133, N-(4-(7-(3-Fluorophenyl)-1,3-dimethyl-2,6-dioxo-2,3,6,7-tetrahydro-1H-purin-8-yl)phenyl) acetamide], for which the IC50 in the series with SkBr3 cells was 46.8 µM. Also, the IC50 in the series on MCF-7 cells is 9.15 µM. Also, in the series on HUVECs [1], the capillary tube formation result is “inhibited the formation of vessel-like structures”. Besides, the cell migration result in the series with HUVECs [2] is reported as “significantly inhibited”. In addition, in series [3] (ICR, po, 5 mg/kg, p.o. 5 mg/kg), the Tmax was about 4.8 h. In series [3] (iv, i.v. 5 mg/kg), the AUC(0-inf) amounted to 3410 ng·h/mL, the MRT stood at 8.2 ± 0.8 h, the clearance is 24.7 mL/min/kg and the AUC(0-t) is 3190 ng·h/mL. In addition, the half-life in series [3] (iv, i.v. 5 mg/kg) was 6.4 ± 0.92 h. The Vd in series [3] (iv, i.v. 5 mg/kg, read-out: Vss) was 12 L/kg. Moreover, in series [3] (oral, p.o. vs i.v. 5 mg/kg, read-out: F (bioavailability)), the bioavailability came to 95.6%. In series [3] (po, p.o. 5 mg/kg), the AUC(0-inf) is 3260 ng·h/mL, the peak level (Cmax) was 236 ± 34 ng/mL, the mean residence time (MRT) came to 9.5 ± 1.9 h and the AUC(0-t) is 3000 ng·h/mL. The half-life in series [3] (po, p.o. 5 mg/kg) is 6.1 ± 1.4 h.
